Source: patent publication US20230416228A1 (Forkhead Biotherapeutics, Inc., priority 2020, published 2023)

Target: T1, human FOXO1 (constitutively active form Thr24Ala, Ser256Ala, Ser319Ala) (Homo sapiens, UniProt Q12778, S256A/S319A/T24A)
T1 construct: expressed in transfected cells; host or cells: HEK293 cells transfected with pcDNA3.1 plasmid
Test: FOXO1 inhibitor activity assay: cell-based transcriptional (luciferase) reporter assay in HEK293 cells
Settings: HEK293 cells transfected with insulin response element firefly luciferase reporter, FOXO1 and Renilla luciferase; 10-point dose response 50 μM to 2.5 nM; 24 hours
Procedure: The inhibitory activities of compounds on FOXO1 were determined by a cell-based transcriptional reporter assay. HEK293 cells were plated onto either 384-well poly-D-lysine coated plates (at 7500 cells per well) or 96-well plates (at 20000 cells per well) in low glucose Eagle's Minimum Essential Medium (EMEM) containing 1% fetal bovine serum, and incubated overnight at 37° C. and 5% CO2. […] Duplicate wells were included for each treatment condition. Cells were incubated for 24 hours at 37° C. and 5% CO2. Luciferase activities in each well were measured using Dual-Glog Luciferase Assay System (Promega) according to manufacturer's protocol and an Envision plate reader suitable for luminescence detection. Firefly luciferase activity was divided by Renilla luciferase activity to calculate a ratio for each well. The ratio in wells containing cells transfected with all 3 plasmids listed above and receiving only DMSO without compound addition was set to 100%. The ratio in wells containing cells transfected with plasmid (1), plasmid (3), and pcDNA3.1 containing the open reading frame of red fluorescent protein (instead of human FOXO1) and treated with DMSO was set to 0%. The ratio in each well receiving compound treatment was normalized and expressed as a percentage. Data were fit by 4-parameter logistic regression to determine IC50 and maximal inhibition values. Each compound was tested in a minimum of 2 independent experiments.

T1 sequence (Q12778 whole entry T24A/S256A/S319A): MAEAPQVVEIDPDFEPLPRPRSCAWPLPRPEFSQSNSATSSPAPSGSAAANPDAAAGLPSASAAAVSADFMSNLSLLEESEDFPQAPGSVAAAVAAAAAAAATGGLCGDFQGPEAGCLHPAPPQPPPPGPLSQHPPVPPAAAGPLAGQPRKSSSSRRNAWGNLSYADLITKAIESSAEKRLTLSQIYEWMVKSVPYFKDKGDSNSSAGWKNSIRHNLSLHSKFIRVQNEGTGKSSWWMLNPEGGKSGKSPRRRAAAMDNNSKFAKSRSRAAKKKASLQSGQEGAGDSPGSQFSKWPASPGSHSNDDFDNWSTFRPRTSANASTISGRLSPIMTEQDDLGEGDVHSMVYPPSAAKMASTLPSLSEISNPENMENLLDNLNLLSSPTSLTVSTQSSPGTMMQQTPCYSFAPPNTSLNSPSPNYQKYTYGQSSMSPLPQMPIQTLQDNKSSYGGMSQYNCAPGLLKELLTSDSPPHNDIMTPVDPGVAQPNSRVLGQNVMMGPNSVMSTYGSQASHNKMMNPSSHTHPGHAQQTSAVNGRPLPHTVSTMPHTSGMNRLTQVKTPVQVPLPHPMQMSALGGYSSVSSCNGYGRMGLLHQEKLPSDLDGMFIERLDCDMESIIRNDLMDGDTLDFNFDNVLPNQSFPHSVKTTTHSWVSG

## CCOC(=O)COc1ccc(C(=O)Nc2cc(-c3nc4ccccc4[nH]3)[nH]n2)cc1Cl [Compound A-57, ethyl 2-[4-[[5-(1H-benzimidazol-2-yl)-1H-pyrazol-3-yl]carbamoyl]-2-chloro-phenoxy]acetate]
  IC50: > 1000 nM

## COCCCOc1ccc(C(=O)Nc2cc(-c3nc4cc(OC)ccc4[nH]3)[nH]n2)cc1Cl [Compound A-58, 3-chloro-N-[5-(5-methoxy-1H-benzimidazol-2-yl)-1H-pyrazol-3-yl]-4-(3-methoxypropoxy)benzamide]
  IC50: < 100 nM

## CC1(O)CCCN(c2ccc(C(=O)Nc3cc(-c4nc5ccccc5[nH]4)[nH]n3)cn2)C1 (stereo not drawn) [Compound A-59, N-[5-(1H-benzimidazol-2-yl)-1H-pyrazol-3-yl]-6-(3-hydroxy-3-methyl-1-piperidyl)pyridine-3-carboxamide]
  IC50: 300 to 1000 nM

## O=C(Nc1cc(-c2nc3ccccc3[nH]2)[nH]n1)c1ccc(N2C[C@H](O)[C@@H](O)C2)nc1 [Compound A-60, N-[5-(1H-benzimidazol-2-yl)-1H-pyrazol-3-yl]-6-[(3S,4S)-3,4-dihydroxy-pyrrolidin-1-yl]pyridine-3-carboxamide]
  IC50: > 1000 nM

## CCOCCNc1ccc(C(=O)Nc2cc(-c3nc4ccccc4[nH]3)[nH]n2)cn1 [Compound A-61, N-[5-(1H-benzimidazol-2-yl)-1H-pyrazol-3-yl]-6-(2-ethoxyethylamino)-pyridine-3-carboxamide]
  IC50: 100 to 300 nM

## O=C(O)COc1ccc(C(=O)Nc2cc(-c3nc4ccccc4[nH]3)[nH]n2)cn1 [Compound A-62, 2-[[5-[[5-(1H-benzimidazol-2-yl)-1H-pyrazol-3-yl]carbamoyl]-2-pyridyl]-oxy]acetic acid]
  IC50: > 1000 nM

## C[C@H](CO)Nc1ccc(C(=O)Nc2cc(-c3nc4ccccc4[nH]3)[nH]n2)cn1 [Compound A-63, N-[5-(1H-benzimidazol-2-yl)-1H-pyrazol-3-yl]-6-[[(1R)-2-hydroxy-1-methyl-ethyl]amino]pyridine-3-carboxamide]
  IC50: > 1000 nM

## O=C(Nc1cc(-c2nc3ccccc3[nH]2)[nH]n1)c1ccc(N2CC(O)C2)nc1 [Compound A-64, N-[5-(1H-benzimidazol-2-yl)-1H-pyrazol-3-yl]-6-(3-hydroxyazetidin-1-yl)pyridine-3-carboxamide]
  IC50: > 1000 nM

## COC1CN(c2ccc(C(=O)Nc3cc(-c4nc5ccccc5[nH]4)[nH]n3)cn2)C1 [Compound A-65, N-[5-(1H-benzimidazol-2-yl)-1H-pyrazol-3-yl]-6-(3-methoxyazetidin-1-yl)pyridine-3-carboxamide]
  IC50: < 100 nM

## O=C(Nc1cc(-c2nc3ccccc3[nH]2)[nH]n1)c1ccc(N2CCCC(O)C2)nc1 (stereo not drawn) [Compound A-66, N-[5-(1H-benzimidazol-2-yl)-1H-pyrazol-3-yl]-6-(3-hydroxy-1-piperidyl)pyridine-3-carboxamide]
  IC50: 300 to 1000 nM

## O=C(Nc1cc(-c2nc3ccccc3[nH]2)[nH]n1)c1ccc(N2CCC(CO)CC2)nc1 [Compound A-67, N-[5-(1H-benzimidazol-2-yl)-1H-pyrazol-3-yl]-6-[4-(hydroxymethyl)-1-piperidyl]pyridine-3-carboxamide]
  IC50: < 100 nM

## O=C(Nc1cc(-c2nc3ccccc3[nH]2)[nH]n1)c1ccc(N2CCCC(CO)C2)nc1 (stereo not drawn) [Compound A-68, N-[5-(1H-benzimidazol-2-yl)-1H-pyrazol-3-yl]-6-[3-(hydroxymethyl)-1-piperidyl]pyridine-3-carboxamide]
  IC50: < 100 nM

## O=C1CN(c2ccc(C(=O)Nc3cc(-c4nc5ccccc5[nH]4)[nH]n3)cn2)CCN1 [Compound A-69, N-[5-(1H-benzimidazol-2-yl)-1H-pyrazol-3-yl]-6-(3-oxopiperazin-1-yl)pyridine-3-carboxamide]
  IC50: 300 to 1000 nM

## CCOC(=O)COc1ccc(C(=O)Nc2cc(-c3nc4ccccc4[nH]3)[nH]n2)cn1 [Compound A-70, ethyl 2-[[5-[[5-(1H-benzimidazol-2-yl)-1H-pyrazol-3-yl]carbamoyl]-2-pyridyl]oxy]acetate]
  IC50: > 1000 nM

## COc1ccc(C(=O)Nc2n[nH]c(-c3nc4ccccc4[nH]3)c2Br)cc1Cl [Compound A-71, N-[5-(1H-benzimidazol-2-yl)-4-bromo-1H-pyrazol-3-yl]-3-chloro-4-methoxy-benzamide]
  IC50: 300 to 1000 nM

## O=C(O)COc1ccc(C(=O)Nc2cc(-c3nc4ccccc4[nH]3)[nH]n2)cc1Cl [Compound A-72, 2-[4-[[5-(1H-benzimidazol-2-yl)-1H-pyrazol-3-yl]carbamoyl]-2-chloro-phenoxy]acetic acid]
  IC50: > 1000 nM

## COC[C@H](C)Nc1ccc(C(=O)Nc2cc(-c3nc4ccccc4[nH]3)[nH]n2)cn1 [Compound A-73, N-[5-(1H-benzimidazol-2-yl)-1H-pyrazol-3-yl]-6-[[(1S)-2-methoxy-1-methyl-ethyl]amino]pyridine-3-carboxamide]
  IC50: 300 to 1000 nM

## COc1ccc(C(=O)Nc2n[nH]c(-c3nc4ccccc4[nH]3)c2Cl)cc1Cl [Compound A-74, N-[5-(1H-benzimidazol-2-yl)-4-chloro-1H-pyrazol-3-yl]-3-chloro-4-methoxy-benzamide]
  IC50: > 1000 nM

## COCCOc1ccc(C(=O)Nc2cc(-c3nc4ccccc4[nH]3)[nH]n2)cc1OC [Compound A-75, N-[5-(1H-benzimidazol-2-yl)-1H-pyrazol-3-yl]-3-methoxy-4-(2-methoxyethoxy)benzamide]
  IC50: < 100 nM

## COc1ccc(C(=O)Nc2n[nH]c(-c3nc4ccccc4[nH]3)c2F)cc1Cl [Compound A-76, N-[5-(1H-benzimidazol-2-yl)-4-fluoro-1H-pyrazol-3-yl]-3-chloro-4-methoxy-benzamide]
  IC50: > 1000 nM

## O=C(Nc1cc(-c2nc3ccccc3[nH]2)[nH]n1)c1ccc(NCCO)c(Cl)c1 [Compound A-78, N-[5-(1H-benzimidazol-2-yl)-1H-pyrazol-3-yl]-3-chloro-4-(2-hydroxy-ethylamino)benzamide]
  IC50: 100 to 300 nM

## COCCOc1ccc(C(=O)Nc2cc(-c3nc4cc(OC)ccc4[nH]3)[nH]n2)cc1Cl [Compound A-79, 3-chloro-N-[5-(5-methoxy-1H-benzimidazol-2-yl)-1H-pyrazol-3-yl]-4-(2-methoxyethoxy)benzamide]
  IC50: < 100 nM

## O=C(Nc1cc(-c2nc3cc(F)ccc3[nH]2)[nH]n1)c1ccc(N2CCC(CO)CC2)nc1 [Compound A-80, N-[5-(5-fluoro-1H-benzimidazol-2-yl)-1H-pyrazol-3-yl]-6-[4-(hydroxymethyl)-1-piperidyl]pyridine-3-carboxamide]
  IC50: < 100 nM

## O=C(Nc1cc(-c2nc3cc(F)ccc3[nH]2)[nH]n1)c1ccc(N2CCC(O)CC2)nc1 [Compound A-81, N-[5-(5-fluoro-1H-benzimidazol-2-yl)-1H-pyrazol-3-yl]-6-(4-hydroxy-1-piperidyl)pyridine-3-carboxamide]
  IC50: 100 to 300 nM

## O=C(Nc1cc(-c2nc3cc(F)ccc3[nH]2)[nH]n1)c1ccc(N2CCOCC2)nc1 [Compound A-82, N-[5-(5-fluoro-1H-benzimidazol-2-yl)-1H-pyrazol-3-yl]-6-morpholino-pyridine-3-carboxamide]
  IC50: < 100 nM

## O=C(Nc1cc(-c2nc3cccc(F)c3[nH]2)[nH]n1)c1ccc(N2CCC(CO)CC2)nc1 [Compound A-83, N-[5-(7-fluoro-1H-benzimidazol-2-yl)-1H-pyrazol-3-yl]-6-[4-(hydroxymethyl)-1-piperidyl]pyridine-3-carboxamide]
  IC50: < 100 nM

## O=C(Nc1cc(-c2nc3cccc(F)c3[nH]2)[nH]n1)c1ccc(N2CCOCC2)nc1 [Compound A-85, N-[5-(7-fluoro-1H-benzimidazol-2-yl)-1H-pyrazol-3-yl]-6-morpholino-pyridine-3-carboxamide]
  IC50: < 100 nM

## O=C(Nc1cc(-c2nc3cc(Cl)ccc3[nH]2)[nH]n1)c1ccc(N2CCC(CO)CC2)nc1 [Compound A-86, N-[5-(5-chloro-1H-benzimidazol-2-yl)-1H-pyrazol-3-yl]-6-[4-(hydroxymethyl)-1-piperidyl]pyridine-3-carboxamide]
  IC50: > 1000 nM

## O=C(Nc1cc(-c2nc3cc(Cl)ccc3[nH]2)[nH]n1)c1ccc(N2CCC(O)CC2)nc1 [Compound A-87, N-[5-(5-chloro-1H-benzimidazol-2-yl)-1H-pyrazol-3-yl]-6-(4-hydroxy-1-piperidyl)pyridine-3-carboxamide]
  IC50: > 1000 nM

## O=C(Nc1cc(-c2nc3cc(Cl)ccc3[nH]2)[nH]n1)c1ccc(N2CCOCC2)nc1 [Compound A-88, N-[5-(5-chloro-1H-benzimidazol-2-yl)-1H-pyrazol-3-yl]-6-morpholino-pyridine-3-carboxamide]
  IC50: > 1000 nM

## O=C(Nc1cc(-c2nc3cc(Br)ccc3[nH]2)[nH]n1)c1ccc(N2CCC(CO)CC2)nc1 [Compound A-89, N-[5-(5-bromo-1H-benzimidazol-2-yl)-1H-pyrazol-3-yl]-6-[4-(hydroxymethyl)-1-piperidyl]pyridine-3-carboxamide]
  IC50: > 1000 nM

## O=C(Nc1cc(-c2nc3cc(Br)ccc3[nH]2)[nH]n1)c1ccc(N2CCC(O)CC2)nc1 [Compound A-90, N-[5-(5-bromo-1H-benzimidazol-2-yl)-1H-pyrazol-3-yl]-6-(4-hydroxy-1-piperidyl)pyridine-3-carboxamide]
  IC50: > 1000 nM

## O=C(Nc1cc(-c2nc3cc(Br)ccc3[nH]2)[nH]n1)c1ccc(N2CCOCC2)nc1 [Compound A-91, N-[5-(5-bromo-1H-benzimidazol-2-yl)-1H-pyrazol-3-yl]-6-morpholino-pyridine-3-carboxamide]
  IC50: > 1000 nM
